From article PMC9977398, “Next-generation membrane-active glycopeptide antibiotics that also inhibit bacterial cell division” (Chemical Science, 2023)
In brackets after ≈: the same amount, converted by molar mass. Read-outs that look alike come from different tables or passages of the source.

Columns and labels:
[1] = tested on: VRE 51559 (vancomycin-resistant E. faecium, VanA phenotype, ATCC 51559); experiment: MIC determination, micro-dilution broth; type: cell-based
Description: (§1) The increase in the carbon content of substituted moieties from six (1) to seven (2 and 3) to ten (5) to twelve (4), increased activity. […]
(§2) Test compound was assayed in a micro -dilution broth format as per the CLSI guideline. The bacterial freeze dried stock samples were stored at -80 °C. About 5 μL of these stocks were added to 3 mL of the respective broth and the culture was grown for 6 h at 37°C with prior to the experiments. This 6 h grown culture was diluted to give effective cell concentration of 10 5 CFU/mL which was then used for determining MIC. Compounds were serially diluted 2 -fold, in sterile millipore water and 50 μL of these serial dilutions were added to the wells of 96 well plate followed by the addition of about 150 μL of bacterial solution. The plates were then incubated for 18-24 h at 37 °C. The O.D. value at 600 nm was recorded using TECAN (Infinite series, M200 pro) Plate Reade r. Each concentration had triplicate values and the whole experiment was done at least twice and the MIC value was determined by taking the average of triplicate O. D. values for each concentration and plotting it against concentration. The data was then subjected to sigmoidal fitting. From the curve the MIC value was determined, as the point where the O. D. was similar to that of control having no bacteria.

[2] = tested on: VRE 51575 (vancomycin-resistant E. faecalis, VanB phenotype, ATCC 51575); experiment: MIC determination, micro-dilution broth; type: cell-based
Description: as §1, §2

[3] = tested on: VRSA 1 (vancomycin-resistant S. aureus); experiment: MIC determination, micro-dilution broth; type: cell-based; settings: Staphylococcus aureus, read-out: Minimum inhibitory concentration, VRSA 1
Description: as §1, §2

[4] = tested on: VRSA 12 (vancomycin-resistant S. aureus); experiment: MIC determination, micro-dilution broth; type: cell-based; settings: Staphylococcus aureus, read-out: Minimum inhibitory concentration, VRSA 12
Description: as §1, §2

[5] = tested on: VRSA 4 (vancomycin-resistant S. aureus); experiment: MIC determination, micro-dilution broth; type: cell-based; settings: Staphylococcus aureus, read-out: Minimum inhibitory concentration, VRSA 4
Description: as §1, §2

[6] = tested on: MRSA; experiment: Antagonization assay with Ac2KAA or lipoteichoic acid; type: cell-based, S. aureus; settings: for change in MIC in presence of lipoteichoic acid: 100 μg/mL lipoteichoic acid as competing ligand
Description: Ac2KAA can act as a competitive ligand to the target of glycopeptide antibiotics and therefore antagonize antibacterial activity. In the presence of 500 μM of Ac2KAA, the activity of VanQAmC10 (8) was reduced by 2-fold. However, the MIC of vancomycin increased from 0.6 μM to >30 μM ([…] increase in MIC) in presence of the same amount of Ac2KAA. The 2-fold reduction in the activity of VanQAmC10 (8) accounts for the loss of activity due to D-Ala–D-Ala binding. This implied that it acted through additional mechanisms that are independent of Ala-D-Ala binding. The presence of the positive charge in VanQAmC10 (8) could result in interactions with the negatively charged components of the bacterial cell wall like teichoic acid. C-terminal trimethyl ammonium modified vancomycin derivative has been reported to bind to teichoic acid.[32] […]
Antagonization of antibacterial activity of AAV-qC10 was determined by addition of 500 μM
N,N՛-diacetyl–L-Lys–D-Ala–D-Ala or 100 μg/mL of lipoteichoic acid to serial dilutions of the […]

[7] = tested on: ΔamiAC MG1655 E. coli; experiment: Microscopy of ΔamiAC MG1655 E. coli; type: cell-based; settings: sub-inhibitory concentrations: vancomycin 3 μM, VanQAmC10 2 μM (Fig. 5D)
Description: The bacterial amidases help cleave the septum in the final stage of cell division to produce daughter cells.[39] In the absence of amidases, chains of unseparated cells are formed (Fig. 5D). These retain distinct cytoplasmic compartments but share an outer membrane.[39] These cells are known to be hypersensitive to antibiotics and detergents. However, ΔamiAC mutations are resistant to killing by cephalexin.[38] The MIC of VanQAmC10 against the ΔamiAC mutant was reduced to 4 μM, while that of vancomycin was >10 μM. […] This is indicative of impaired cell division. Cell debris due to lysis after compound treatment are also visible. […]
from 10 μg/mL. The bacteria with compounds and untreated control were incubated for 18 h at 37 ̊C under shaking and OD600 was measured.
Microscopy of ΔamiAC MG1655 E. coli
ΔamiAC MG1655 was cultured overnight in LB media at 37 ̊C. […]
MRSA ATCC 33591 was grown to mid-log phase at 37 °C. […] The viable bacteria were then counted after 48 h incubation at 37 °C. […]
Antagonization of antibacterial activity of AAV-qC10 was determined by addition of 500 μM N,N՛-diacetyl–L-Lys–D-Ala–D-Ala or 100 μg/mL of lipoteichoic acid to serial dilutions of the test compound. The MIC was then determined against MRSA by measuring the OD600 18-24 […]
Vancomycin was chosen as control antibiotic for MRSA. The initial MIC values of VanQAmC10, vancomycin were determined against the respective bacteria. […]

SMILES | MIC ([1]; Enterococcus, read-out: Minimum inhibitory concentration, VRE 51559) [µM] | MIC ([2]; Enterococcus, read-out: Minimum inhibitory concentration, VRE 51575) [µM] | MIC [3] [µM] | MIC [4] [µM] | MIC [5] [µM] | change in MIC in presence of lipoteichoic acid [6] | fold increase in MIC in presence of Ac2KAA ([6]; 500 μM Ac2KAA, MRSA) [fold] | MIC ([6]; Staphylococcus aureus, 500 μM Ac2KAA, MRSA, read-out: MIC in presence of Ac2KAA) [µM] | morphology of ΔamiAC mutant [7] | fold reduction of activity in presence of Ac2KAA ([6]; 500 μM Ac2KAA, MRSA) [fold] | MIC ([1]; Enterococcus; read-out: Minimum inhibitory concentration, VRE 51559) [µM] | MIC ([2]; Enterococcus; read-out: Minimum inhibitory concentration, VRE 51575) [µM]
CN[C@H](CC(C)C)C(=O)N[C@H]1C(=O)N[C@@H](CC(N)=O)C(=O)N[C@H]2C(=O)N[C@H]3C(=O)N[C@H](C(=O)N[C@H](C(=O)O)c4cc(O)cc(O)c4-c4cc3ccc4O)[C@H](O)c3ccc(c(Cl)c3)Oc3cc2cc(c3O[C@@H]2O[C@H](CO)[C@@H](O)[C@H](O)[C@H]2O[C@H]2C[C@](C)(N)[C@H](O)[C@H](C)O2)Oc2ccc(cc2Cl)[C@H]1O [Vancomycin, reference compound] | 250 (≈ 362 µg/mL) | 750 (≈ 1090 µg/mL) | 345 (≈ 500 µg/mL) | 345 (≈ 500 µg/mL) | 345 (≈ 500 µg/mL) | no change in the MIC | > 40 | > 30 | few cells appear larger and bulky while most appear similar to the untreated bacteria | – | – | –
CCCCCCCCCCNC(=O)C[N+](C)(C)CCCNC(=O)C1NC(=O)C2NC(=O)C(NC(=O)C3NC(=O)C(CC(N)=O)NC(=O)C(NC(=O)C(CC(C)C)NC)C(O)c4ccc(c(Cl)c4)Oc4cc3cc(c4OC3OC(CO)C(O)C(O)C3OC3CC(C)(N)C(O)C(C)O3)Oc3ccc(cc3Cl)C2O)c2ccc(O)c(c2)-c2c(O)cc(O)cc21 (centres unmarked) [VanQAmC10 (8)] | – | – | – | – | – | no change in the MIC | – | – | larger cell phenotypes of variable sizes | 2 | – | –
CNC(CC(C)C)C(=O)NC1C(=O)NC(CC(N)=O)C(=O)NC2C(=O)NC3C(=O)NC(C(=O)NC(C(=O)NCCC[N+](C)(C)Cc4ccc(-c5ccccc5)cc4)c4cc(O)cc(O)c4-c4cc3ccc4O)C(O)c3ccc(c(Cl)c3)Oc3cc2cc(c3OC2OC(CO)C(O)C(O)C2OC2CC(C)(N)C(O)C(C)O2)Oc2ccc(cc2Cl)C1O (centres unmarked) [VanQbiph (4)] | – | – | 7.8 | 15.7 | 3.9 | – | – | – | – | – | 6.1 | 12.3
